# Results: PMC12207590, “Substrate Specificity of the Organic Cation Transporters MATE1 and MATE2K and Functional Overlap with OCT1 and OCT2” (Journal of Medicinal Chemistry, 2025)
# Like-named read-outs stand apart in the source and are kept apart here.
# What was measured:
# [1] = target: MATE2K (Homo sapiens, UniProt Q86VL8); assay: Uptake ratio in MATE2K-overexpressing HEK293 cells vs empty vector (2.5 μM, 1 min, HPLC-MS/MS); assay type: cell-based; settings: for MATE2K ratio in this study: Table S1
# [2] = target: T1, MATE1 (Homo sapiens, UniProt Q96FL8); assay: Uptake ratio in MATE1-overexpressing HEK293 cells vs empty vector (2.5 μM, 1 min, HPLC-MS/MS); assay type: cell-based; settings: for MATE1 ratio in this study: Table S1
# T1 sequence (Q96FL8 1-570): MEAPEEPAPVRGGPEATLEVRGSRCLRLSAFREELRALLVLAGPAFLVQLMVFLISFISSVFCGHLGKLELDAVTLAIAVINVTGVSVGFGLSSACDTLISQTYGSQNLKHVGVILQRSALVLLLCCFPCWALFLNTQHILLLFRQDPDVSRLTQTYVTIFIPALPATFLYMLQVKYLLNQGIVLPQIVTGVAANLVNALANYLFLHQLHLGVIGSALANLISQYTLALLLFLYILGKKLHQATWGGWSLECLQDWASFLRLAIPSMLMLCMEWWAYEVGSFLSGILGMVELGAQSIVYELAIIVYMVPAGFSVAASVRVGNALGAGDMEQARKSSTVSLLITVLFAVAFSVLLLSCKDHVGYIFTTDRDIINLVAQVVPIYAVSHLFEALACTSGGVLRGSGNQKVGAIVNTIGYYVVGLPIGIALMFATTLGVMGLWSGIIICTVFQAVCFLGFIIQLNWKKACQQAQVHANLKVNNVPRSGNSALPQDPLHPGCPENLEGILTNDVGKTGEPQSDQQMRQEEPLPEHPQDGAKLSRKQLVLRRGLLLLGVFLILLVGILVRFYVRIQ
# [3] = fold uptake over empty vector, 2.5 μM, 1 min
# [4] = uptake ratio MATE2K-overexpressing vs empty-vector HEK293 cells, 2.5 μM, 1 min, mean
# [5] = uptake ratio MATE1-overexpressing vs empty-vector HEK293 cells, 2.5 μM, 1 min, mean
# [6] = mean ratio of uptake in MATE2K-overexpressing HEK293 cells vs empty vector, 2.5 μM, 1 min
# [7] = mean ratio of uptake in MATE1-overexpressing HEK293 cells vs empty vector, 2.5 μM, 1 min
# Sequence of MATE2K (Q86VL8 1-566 isoform Q86VL8-3): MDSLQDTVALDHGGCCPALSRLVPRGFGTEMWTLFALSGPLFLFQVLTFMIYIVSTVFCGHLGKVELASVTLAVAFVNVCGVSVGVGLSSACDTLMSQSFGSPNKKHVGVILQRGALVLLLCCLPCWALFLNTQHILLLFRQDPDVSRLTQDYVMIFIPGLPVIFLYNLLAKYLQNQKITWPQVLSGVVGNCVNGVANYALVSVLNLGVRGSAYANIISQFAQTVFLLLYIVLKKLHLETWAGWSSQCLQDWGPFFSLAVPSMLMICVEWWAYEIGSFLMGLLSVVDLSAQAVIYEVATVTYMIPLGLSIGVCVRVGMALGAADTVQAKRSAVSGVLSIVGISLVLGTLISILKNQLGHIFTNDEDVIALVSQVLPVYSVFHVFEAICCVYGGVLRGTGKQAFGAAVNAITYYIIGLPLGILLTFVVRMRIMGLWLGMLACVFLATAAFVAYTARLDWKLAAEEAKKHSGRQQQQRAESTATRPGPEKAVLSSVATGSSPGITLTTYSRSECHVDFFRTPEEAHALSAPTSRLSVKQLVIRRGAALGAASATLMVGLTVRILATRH
smiles,measurement,setting,value
O=S(=O)(c1cccc2cnccc12)N1CCCNCC1 [Fasudil],MATE2K ratio,[1]; [3],1.80
same,MATE1 ratio,[2]; [3],1.50
OCCc1ccccc1,MATE2K ratio,[1]; [3],1.20
same,MATE1 ratio,[2]; [3],1.39
CNCC(=O)O [Sarcosine],MATE2K ratio,[1]; [3],1.01
same,MATE2,[1]; [4],1.01
same,MATE1 ratio,[2]; [3],0.76
same,MATE1,[2]; [5],0.76
CCC(C)C(=O)OC(CC(=O)[O-])C[N+](C)(C)C (centres unmarked) [2-Methylbutyrylcarnitine],MATE2K ratio,[1]; [3],1.24
same,MATE2 (uptake ratio),[1]; [6],1.24
same,MATE1 ratio,[2]; [3],0.61
same,MATE1 (uptake ratio),[2]; [7],0.61
COc1nc(C)nc(Cl)c1N=C1NCCN1 [Moxonidine],MATE2K ratio,[1]; [3],1.78
same,MATE1 ratio,[2]; [3],2.02
"CCN1CCCC1CNC(=O)c1cc(S(=O)(=O)CC)c(N)cc1OC [Amisulpride (R), Amisulpride]",MATE2K ratio,[1]; [3],7.40
same,MATE2 (uptake ratio),[1]; [6],7.4
same,MATE1 ratio,[2]; [3],8.46
same,MATE1 (uptake ratio),[2]; [7],8.46
CC(C)NCC(O)COc1ccc(CCOCC2CC2)cc1 (centres unmarked) [Betaxolol],MATE2K ratio,[1]; [3],1.43
same,MATE2 (uptake ratio),[1]; [6],1.43
same,MATE1 ratio,[2]; [3],1.37
same,MATE1 (uptake ratio),[2]; [7],1.37
N[C@@H](Cc1ccccc1)C(=O)O [Phenylalanine],MATE2K ratio,[1]; [3],1.01
same,MATE1 ratio,[2]; [3],0.66
C[N+]1(CCC(C(N)=O)(c2ccccc2)c2ccccc2)CCCCC1 [Fenpiverinium],MATE2K ratio,[1]; [3],1.35
same,MATE1 ratio,[2]; [3],15.19
"CC(C)(C)NCC(O)c1ccc(O)c(CO)c1 [Salbutamol (R), Salbutamol]",MATE2K ratio in this study,"[1]; 2.5 μM, 1 min",3.74
same,MATE2K ratio,[1]; [3],3.74
same,MATE2,[1]; [4],3.74
same,MATE1 ratio in this study,"[2]; 2.5 μM, 1 min",6.98
same,MATE1 ratio,[2]; [3],6.98
same,MATE1,[2]; [5],6.98
Oc1ccc(CC2NCCc3cc(O)c(O)cc32)cc1 (centres unmarked) [Higenamine],MATE2K ratio,[1]; [3],11.27
same,MATE1 ratio,[2]; [3],14.55
NCc1ccc(O)cc1,MATE2K ratio,[1],1.09
same,MATE1 ratio,[2],1.48
COc1ccc2[nH]cc(C[C@H](N)C(=O)O)c2c1,MATE2K ratio,[1]; [3],1.10
same,MATE1 ratio,[2]; [3],0.89
Nc1nc(NC2CC2)c2ncn([C@H]3C=C[C@@H](CO)C3)c2n1 [Abacavir],MATE2K ratio,[1]; [3],1.25
same,MATE2 (uptake ratio),[1]; [6],1.25
same,MATE1 ratio,[2]; [3],0.94
same,MATE1 (uptake ratio),[2]; [7],0.94
Clc1ccc(COC(Cn2ccnc2)c2ccc(Cl)cc2Cl)c(Cl)c1 (centres unmarked) [Miconazole],MATE2K ratio,[1]; [3],1.50
same,MATE1 ratio,[2]; [3],1.33
CC(C1=C(CCN(C)C)Cc2ccccc21)c1ccccn1 (centres unmarked) [Dimethindene],MATE2K ratio,[1]; [3],1.02
same,MATE1 ratio,[2]; [3],0.99
O=C1CCC[C@@H]2[C@H]3CCCN4CCC[C@@H](CN12)[C@@H]34 [Matrine],MATE2K ratio,[1],1.27
same,MATE1 ratio,[2],1.03
Cc1cc(C(C)(C)C)c(O)c(C)c1CC1=NCCN1 [Oxymetazoline],MATE2K ratio,[1]; [3],2.29
same,MATE1 ratio,[2]; [3],5.22
CNCCCC1(c2ccc(F)cc2)OCc2cc(C#N)ccc21 (centres unmarked) [N-Desmethylcitalopram],MATE2K ratio,[1],1.09
same,MATE1 ratio,[2],1.09
CCC1(C2=NCCN2)Cc2ccccc2O1 (centres unmarked) [Efaroxan],MATE2K ratio,[1]; [3],1.72
same,MATE1 ratio,[2]; [3],1.38
CNCCc1ccc(O)cc1 [N-Methyl-p-Tyramine],MATE2K ratio,[1],1.39
same,MATE1 ratio,[2],3.11
CNS(=O)(=O)CCc1ccc2[nH]cc(C3CCN(C)CC3)c2c1 [Naratriptan],MATE2K ratio,[1]; [3],8.34
same,MATE1 ratio,[2]; [3],10.81
COc1cc(CNC(=O)CCCC/C=C/C(C)C)ccc1O [Capsaicin],MATE2K ratio,[1]; [3],0.99
same,MATE2 (uptake ratio),[1]; [6],0.99
same,MATE1 ratio,[2]; [3],1.18
same,MATE1 (uptake ratio),[2]; [7],1.18
C=CCOc1ccccc1OCC(O)CNC(C)C (centres unmarked) [Oxprenolol],MATE2K ratio,[1]; [3],1.20
same,MATE1 ratio,[2]; [3],1.05
COc1ccc2c3c([nH]c2c1)C(C)=NCC3 [Harmaline],MATE2K ratio,[1],1.15
same,MATE1 ratio,[2],1.19
CNC(=C[N+](=O)[O-])NCCSCc1csc(CN(C)C)n1 [Nizatidine],MATE2K ratio,[1]; [3],10.42
same,MATE1 ratio,[2]; [3],11.88
Br.Cc1ncc(C[n+]2cccc(CCO)c2C)c(N)n1.[Br-] [Pyrithiamine],MATE2K ratio,[1]; [3],7.32
same,MATE2,[1]; [4],7.32
same,MATE1 ratio,[2]; [3],20.40
same,MATE1,[2]; [5],20.4
CC(C)C[C@H](NC(=O)[C@H](Cc1ccccc1)NC(=O)c1cnccn1)B(O)O [Bortezomib],MATE2K ratio,[1]; [3],1.10
same,MATE2 (uptake ratio),[1]; [6],1.1
same,MATE1 ratio,[2]; [3],1.20
same,MATE1 (uptake ratio),[2]; [7],1.2
"CC(C)(C)NCC(O)c1ccc(O)c(CO)c1 [Salbutamol (S), Salbutamol]",MATE2K ratio in this study,"[1]; 2.5 μM, 1 min",5.09
same,MATE2K ratio,[1]; [3],5.09
same,MATE2,[1]; [4],5.09
same,MATE1 ratio in this study,"[2]; 2.5 μM, 1 min",8.88
same,MATE1 ratio,[2]; [3],8.88
same,MATE1,[2]; [5],8.88
NCCCCNCCCN [Spermidine],MATE2K ratio,[1]; [3],0.55
same,MATE2,[1]; [4],0.55
same,MATE1 ratio,[2]; [3],0.63
same,MATE1,[2]; [5],0.63
C[C@]12CC[C@@H]3c4ccc(OS(=O)(=O)O)cc4CC[C@H]3[C@@H]1CCC2=O [Estrone-3-sulfate],MATE2K ratio in this study,"[1]; 2.5 μM, 1 min",2.08
same,MATE2K ratio,[1]; [3],2.08
same,MATE1 ratio in this study,"[2]; 2.5 μM, 1 min",4.80
same,MATE1 ratio,[2]; [3],4.80
same,substrate of MATE1,[2]; organic anions tested,substrates of MATE1
OCCN1CCN(CCCN2c3ccccc3Sc3ccc(C(F)(F)F)cc32)CC1 [Fluphenazine],MATE2K ratio,[1]; [3],1.13
same,MATE1 ratio,[2]; [3],1.26
CCc1cc2c(cc1CC)CC(NC[C@H](O)c1ccc(O)c3[nH]c(=O)ccc13)C2 [Indacaterol],MATE2K ratio,[1]; [3],1.88
same,MATE1 ratio,[2]; [3],1.98
CCCCNc1ccc(C(=O)OCCN(C)C)cc1 [Tetracaine],MATE2,[1]; [4],1.3
same,MATE1,[2]; [5],1.12
C/C=C(\C)C(=O)OC(CC(=O)[O-])C[N+](C)(C)C (centres unmarked) [Tiglylcarnitine],MATE2,[1]; [4],0.76
same,MATE1,[2]; [5],0.96
CC(=O)O[C@H]1C[C@@H]2CC[C@@H]3[C@H](CC[C@@]4(C)[C@H]3C[C@H]([N+]3(C)CCCCC3)[C@@H]4OC(C)=O)[C@@]2(C)C[C@@H]1N1CCCCC1 [Vecuronium],MATE2,[1],4.72
same,MATE1,[2],8.32
NCC(CC(=O)O)c1ccc(Cl)cc1 (centres unmarked) [Baclofen],MATE2K ratio,[1]; [3],1.05
same,MATE2 (uptake ratio),[1]; [6],1.05
same,MATE1 ratio,[2]; [3],1.45
same,MATE1 (uptake ratio),[2]; [7],1.45
CNC1(C)C2CCC(C2)C1(C)C (centres unmarked) [Mecamylamine],MATE2K ratio,[1]; [3],1.05
same,MATE1 ratio,[2]; [3],1.20
O=C(C[S+]([O-])Cc1ccco1)NC/C=C\COc1cc(CN2CCCCC2)ccn1 (centres unmarked) [Lafutidine],MATE2K ratio,[1]; [3],1.48
same,MATE1 ratio,[2]; [3],1.41
CC(C)Nc1cccnc1N1CCN(C(=O)c2cc3cc(NS(C)(=O)=O)ccc3[nH]2)CC1 [Delavirdine],MATE2K ratio,[1]; [3],1.09
same,MATE1 ratio,[2]; [3],1.19
NC12CC3CC(CC(C3)C1)C2 [Amantadine],MATE2 (uptake ratio),[1],1.48
same,MATE2K ratio,[1],1.48
same,MATE1 (uptake ratio),[2],1.42
same,MATE1 ratio,[2],1.42
NCCCC(=O)O [Gamma-aminobutyric acid],MATE2K ratio,[1]; [3],0.87
same,MATE1 ratio,[2]; [3],0.90
Clc1ccc2c(c1)C(N1CCNCC1)=Nc1ccccc1O2 [Amoxapine],MATE2K ratio,[1]; [3],1.33
same,MATE2 (uptake ratio),[1]; [6],1.33
same,MATE1 ratio,[2]; [3],1.32
same,MATE1 (uptake ratio),[2]; [7],1.32
COc1ccc2[nH]c3c(c2c1)CCNC3 [Pinoline],MATE2K ratio,[1],1.21
same,MATE1 ratio,[2],1.28
N=C(N)NC(=O)Cc1c(Cl)cccc1Cl [Guanfacine],MATE2K ratio,[1]; [3],1.37
same,MATE1 ratio,[2]; [3],1.60
C=C[C@H]1CN2CC[C@H]1C[C@H]2[C@H](O)c1ccnc2ccccc12 [Cinchonidine],MATE2 (uptake ratio),[1],1.14
same,MATE2K ratio,[1],1.14
same,MATE1 (uptake ratio),[2],1.16
same,MATE1 ratio,[2],1.16
N=C(N)NC(=N)Nc1ccc(Cl)cc1 [1-(4-Chlorophenyl)biguanide],MATE2 (uptake ratio),[1],3.82
same,MATE2K ratio,[1],3.82
same,MATE1 (uptake ratio),[2],6.97
same,MATE1 ratio,[2],6.97
CN1CCc2cccc3c2[C@H]1Cc1ccc(O)c(O)c1-3 [Apomorphine],MATE2K ratio,[1]; [3],1.02
same,MATE2 (uptake ratio),[1]; [6],1.02
same,MATE1 ratio,[2]; [3],1.05
same,MATE1 (uptake ratio),[2]; [7],1.05
"CC(C)NCC(O)COc1cccc2ccccc12 [Propranolol (R), Propranolol]",MATE2,[1]; [4],1.04
same,MATE1,[2]; [5],1.16
CC[C@H]1OC(=O)[C@H](C)[C@@H](O[C@H]2C[C@@](C)(OC)[C@@H](O)[C@H](C)O2)[C@H](C)[C@@H](O[C@@H]2O[C@H](C)C[C@H](N(C)C)[C@H]2O)[C@](C)(OC)C[C@@H](C)C(=O)[C@H](C)[C@@H](O)[C@]1(C)O [Clarithromycin],MATE2K ratio,[1]; [3],1.31
same,MATE2 (uptake ratio),[1]; [6],1.31
same,MATE1 ratio,[2]; [3],1.21
same,MATE1 (uptake ratio),[2]; [7],1.21
CC(=O)Nc1ccc(O)cc1 [Paracetamol],MATE2K ratio,[1]; [3],0.99
same,MATE1 ratio,[2]; [3],1.00
N=C(N)NCCC[C@H](NC(=O)c1ccc2ccccc2c1O)C(=O)N1CCC[C@H]1C(N)=O [APC366],MATE2 (uptake ratio),[1],1.41
same,MATE2K ratio,[1],1.41
same,MATE1 (uptake ratio),[2],19.12
same,MATE1 ratio,[2],19.12
